# Assay results from patent publication US20250011725A1, “TISSUE-[…] CERAMIC TEMPLATE AND USES THEREOF” (Osteogene Bio Inc., priority 2023, published 2025).
# Legend:
# Assay type in all cases: cell-based
# [1] = tested on: co-cultured osteoblast precursor MC3T3 and osteosarcoma cells; assay: survival index of co-cultured cells after doxorubicin, 2D static culture on culture plate without PCT; conditions: 0.5 mg/ml doxorubicin
# Description: (§1) FIG. 37 depicts comparison of survival index of co-cultured cells onto a culture plate for 2D static culture without a porous ceramic template (PCT), 3D static culture using a PCT, and 3D dynamic culture using a PCT after treated with doxorubicin (DOX: therapeutic drug) for designated time. In this example, osteoblast precursor MC3T3 with 2.5×10^5 cell population and osteosarcoma with 1×10^5 cell population are deployed onto a 12 well culture plate for the 2D static culture. 2.5×10^5 MC3T3 cell and 1×10^5 osteosarcoma are also seeded onto a PCT that is placed in a 12 well culture plate for the 3D static culture. For the 3D dynamic culture, 2.5×10^5 MC3T3 cell and 1×10^5 osteosarcoma were seeded onto a PCT and held for two days under static culture condition, then relocated into a culture column and subjected to dynamic culture with doxorubicin (therapeutic agent) using a peristaltic perfusion pump. […] In this regard, the 3D dynamic culture system is considered an effective alternative method of mimicking in vivo cancer model for performing a therapeutic agent test and/or screening.
# [2] = tested on: co-cultured osteoblast precursor MC3T3 and osteosarcoma cells; assay: survival index of co-cultured cells after doxorubicin, 3D dynamic culture using a PCT (perfusion bioreactor)
# Description: FIG. 33 depicts a bioreactor system suitable for performing a therapeutic agent treatment test according to embodiments of the present disclosure. Reference numeral 902 represents a co-cultured 3D cancer model platform 902 including a PCT 101 (such as the one resulting from the co-culturing discussed above in connection with FIGS. 32A and 32B). The 3D cancer model platform 902 is inserted into a culture column 903 for dynamic therapeutic agent treatment. The culture column 903 is connected with a medium vessel 904 that is filled with a medium in which a therapeutic agent 901 is dissolved. Afterwards, a dynamic therapeutic agent treatment is employed for up to, but not limited to, about seven days. In an exemplary embodiment, the therapeutic agent 901 includes Doxorubicin with a concentration of about 0.5 mg/ml. However, the present disclosure is suitable for cancer treatment with various therapeutic agents including but not limited to Cisplatin, Methotrexate, Ifosfamide, Actinomycin D, Bleomycin, Vincristine, Cyclophosphamide, Paclitaxel, Carboplatin, or a combination of two more of the foregoing agents. In an exemplary embodiment, a flow rate of the therapeutic agent 901 medium into the culture column 903 is about 5 ml/min for about five minutes per day. […]
# [3] = tested on: co-cultured osteoblast precursor MC3T3 and osteosarcoma cells; assay: survival index of co-cultured cells after doxorubicin, 3D static culture using a PCT; conditions: 3D static culture on PCT, 0.5 mg/ml doxorubicin
# Description: as §1
smiles,measurement,setting,value
COc1cccc2c1C(=O)c1c(O)c3c(c(O)c1C2=O)C[C@@](O)(C(=O)CO)C[C@@H]3O[C@H]1C[C@H](N)[C@H](O)[C@H](C)O1 [doxorubicin],survival index compared to control,[1],significant reduction
same,reduction of survival index compared to control,"[2]; 3D dynamic culture on PCT, 0.5 mg/ml doxorubicin, 5 ml/min flow rate for five minutes per day, three days",not significant
same,"cell survival index, 3D dynamic culture in comparison with 3D static culture",[2]; after doxorubicin treatment,significantly higher
same,survival index compared to control,[3],significant reduction
